Patent US8569292B2, “Cyclic inhibitors of 11β-hydroxysteroid dehydrogenase 1” (Vitae Pharmaceuticals, Inc., priority 2008, dated 2013)

Legend:
11β-HSD1 [1] = target: T1, 11β-HSD1 (Homo sapiens, UniProt P28845); test: biochemical; conditions: for inhibition at 0.1 µM: read-out: Average % inhibition at 100 nM
11β-HSD1 [2] = target: T1, 11β-HSD1; test: Biological Test Example 4: microsomal 11β-HSD1 in the presence of 50% human plasma; conditions: for Shift: IC50 in Test Example 4 divided by IC50 in Test Example 1
[3] = Biological Test Example 1 IC50 (nM)
[4] = IC50 Range, Biological Test Example 1

T1 sequence (P28845 whole entry): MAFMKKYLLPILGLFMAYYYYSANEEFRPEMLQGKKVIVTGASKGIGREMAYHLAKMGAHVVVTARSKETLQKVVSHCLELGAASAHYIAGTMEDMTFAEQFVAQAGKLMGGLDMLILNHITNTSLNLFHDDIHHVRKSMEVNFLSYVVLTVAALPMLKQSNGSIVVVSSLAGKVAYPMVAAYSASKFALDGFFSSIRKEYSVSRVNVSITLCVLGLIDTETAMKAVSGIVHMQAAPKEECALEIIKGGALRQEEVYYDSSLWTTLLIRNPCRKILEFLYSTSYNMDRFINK

## Cc1cccc(-c2ccc([C@H](C)N3CC[C@](CCCO)(c4ccccc4)OC3=O)cc2)n1 [EXAMPLE 90, (R)-6-(3-hydroxypropyl)-3-((S)-1-(4-(6-methylpyridin-2-yl)phenyl)ethyl)-6-phenyl-1,3-oxazinan-2-one]
11β-HSD1 [1]; [3]
  IC50: 0.5 nM
11β-HSD1 [1]; [4]
  IC50: < 100 nM
11β-HSD1 [1]
  inhibition at 0.1 µM: 96.7%
11β-HSD1 [2]
  IC50: 13.5 nM
  Shift: 25.5

## COc1ccc(-c2ccc([C@H](C)N3CC[C@](CCO)(c4ccccc4)OC3=O)cc2)cn1 [EXAMPLE 92, (S)-6-(2-hydroxyethyl)-3-((S)-1-(4-(6-methoxypyridin-3-yl)phenyl)ethyl)-6-phenyl-1,3-oxazinan-2-one]
11β-HSD1 [1]; [3]
  IC50: 0.5 nM
11β-HSD1 [1]; [4]
  IC50: < 100 nM
11β-HSD1 [1]
  inhibition at 0.1 µM: 97.3%
11β-HSD1 [2]
  IC50: 12.7 nM
  Shift: 23.7

## Cc1cc(-c2ccc([C@H](C)N3CC[C@](CCO)(c4ccccc4)OC3=O)cc2)ccn1 [EXAMPLE 96, (S)-6-(2-hydroxyethyl)-3-((S)-1-(4-(2-methylpyridin-4-yl)phenyl)ethyl)-6-phenyl-1,3-oxazinan-2-one]
11β-HSD1 [1]; [3]
  IC50: 0.7 nM
11β-HSD1 [1]; [4]
  IC50: < 100 nM
11β-HSD1 [1]
  inhibition at 0.1 µM: 99.8%
11β-HSD1 [2]
  IC50: 5.6 nM

## Cc1cc(-c2ccc([C@H](C)N3CC[C@](CCCNS(C)(=O)=O)(c4ccccc4)OC3=O)cc2)ccn1 [EXAMPLE 99, N-(3-((R)-3-((S)-1-(4-(2-methylpyridin-4-yl)phenyl)ethyl)-2-oxo-6-phenyl-1,3-oxazinan-6-yl)propyl)methanesulfonamide]
11β-HSD1 [1]; [3]
  IC50: 0.5 nM
11β-HSD1 [1]; [4]
  IC50: < 100 nM
11β-HSD1 [1]
  inhibition at 0.1 µM: 98.5%
11β-HSD1 [2]
  IC50: 7.9 nM
  Shift: 16.6

## CC(=O)N(C)CCC[C@]1(c2ccccc2)CCN([C@@H](C)c2ccc(-c3ccnc(C)c3)cc2)C(=O)O1 [EXAMPLE 102, N-methyl-N-(3-((R)-3-((S)-1-(4-(2-methylpyridin-4-yl)phenyl)ethyl)-2-oxo-6-phenyl-1,3-oxazinan-6-yl)propyl)acetamide]
11β-HSD1 [1]; [3]
  IC50: 3.6 nM
11β-HSD1 [1]; [4]
  IC50: < 100 nM
11β-HSD1 [1]
  inhibition at 0.1 µM: 94.3%
11β-HSD1 [2]
  IC50: 63 nM
  Shift: 17.3

## Cc1cc(-c2ccc([C@H](C)N3CC[C@](CCNS(C)(=O)=O)(c4ccccc4)OC3=O)cc2)ccn1 [EXAMPLE 103, N-(2-((S)-3-((S)-1-(4-(2-methylpyridin-4-yl)phenyl)ethyl)-2-oxo-6-phenyl-1,3-oxazinan-6-yl)ethyl)methanesulfonamide]
11β-HSD1 [1]; [3]
  IC50: 1.9 nM
11β-HSD1 [1]; [4]
  IC50: < 100 nM
11β-HSD1 [1]
  inhibition at 0.1 µM: 98.5%
11β-HSD1 [2]
  IC50: 8.2 nM
  Shift: 4.3

## C[C@@H](c1ccc(-c2cnccn2)cc1)N1CC[C@](CCCO)(c2ccc(F)cc2)OC1=O [EXAMPLE 108, (R)-6-(4-fluorophenyl)-6-(3-hydroxypropyl)-3-((S)-1-(4-(pyrazin-2-yl)phenyl)ethyl)-1,3-oxazinan-2-one]
11β-HSD1 [1]; [3]
  IC50: 1.8 nM
11β-HSD1 [1]; [4]
  IC50: < 100 nM
11β-HSD1 [1]
  inhibition at 0.1 µM: 98.1%
11β-HSD1 [2]
  IC50: 7.1 nM
  Shift: 4.0

## C[C@@H](c1ccc(-c2ccc(C(F)(F)F)cn2)cc1)N1CC[C@](CCCO)(c2ccc(F)cc2)OC1=O [EXAMPLE 109, (R)-6-(4-fluorophenyl)-6-(3-hydroxypropyl)-3-((S)-1-(4-(5-(trifluoromethyl)pyridin-2-yl)phenyl)ethyl)-1,3-oxazinan-2-one]
11β-HSD1 [1]; [3]
  IC50: 2.9 nM
11β-HSD1 [1]; [4]
  IC50: < 100 nM
11β-HSD1 [1]
  inhibition at 0.1 µM: 91.5%
11β-HSD1 [2]
  IC50: 31.9 nM
  Shift: 11.0

## C[C@@H](c1ccc(-c2ccc(C#N)cn2)cc1)N1CC[C@](CCCO)(c2ccccc2)OC1=O [EXAMPLE 110, 6-(4-((S)-1-((R)-6-(3-hydroxypropyl)-2-oxo-6-phenyl-1,3-oxazinan-3-yl)ethyl)phenyl)nicotinonitrile]
11β-HSD1 [1]; [3]
  IC50: 0.5 nM
11β-HSD1 [1]; [4]
  IC50: < 100 nM
11β-HSD1 [1]
  inhibition at 0.1 µM: 93.9%
11β-HSD1 [2]
  IC50: 3.7 nM
  Shift: 7.7

## Cc1ccc(-c2ccc([C@H](C)N3CC[C@](CCCO)(c4ccc(F)cc4)OC3=O)cc2)nn1 [EXAMPLE 114, (R)-6-(4-fluorophenyl)-6-(3-hydroxypropyl)-3-((S)-1-(4-(6-methylpyridazin-3-yl)phenyl)ethyl)-1,3-oxazinan-2-one]
11β-HSD1 [1]; [3]
  IC50: 0.9 nM
11β-HSD1 [1]; [4]
  IC50: < 100 nM
11β-HSD1 [1]
  inhibition at 0.1 µM: 98.9%
11β-HSD1 [2]
  IC50: 3.9 nM
  Shift: 4.5

## Cc1cc(-c2ccc([C@H](C)N3CC[C@](CCN(C)S(C)(=O)=O)(c4ccccc4)OC3=O)cc2)ccn1 [EXAMPLE 117, N-methyl-N-(2-((S)-3-((S)-1-(4-(2-methylpyridin-4-yl)phenyl)ethyl)-2-oxo-6-phenyl-1,3-oxazinan-6-yl)ethyl)methanesulfonamide]
11β-HSD1 [1]; [3]
  IC50: 1.7 nM
11β-HSD1 [1]; [4]
  IC50: < 100 nM
11β-HSD1 [1]
  inhibition at 0.1 µM: 93.9%
11β-HSD1 [2]
  IC50: 12.1 nM
  Shift: 7.3

## Cc1cc(-c2ccc([C@H](C)N3CC[C@](CCCN(C)S(C)(=O)=O)(c4ccccc4)OC3=O)cc2)ccn1 [EXAMPLE 119, N-methyl-N-(3-((R)-3-((S)-1-(4-(2-methylpyridin-4-yl)phenyl)ethyl)-2-oxo-6-phenyl-1,3-oxazinan-6-yl)propyl)methanesulfonamide]
11β-HSD1 [1]; [3]
  IC50: 2 nM
11β-HSD1 [1]; [4]
  IC50: < 100 nM
11β-HSD1 [1]
  inhibition at 0.1 µM: 90.8%
11β-HSD1 [2]
  IC50: 29.7 nM
  Shift: 15.1

## Cc1cc(-c2ccc([C@H](C)N3CC[C@](CCCO)(c4ccc(F)cc4)OC3=O)cc2)cc(C)[n+]1[O-] [EXAMPLE 122, 4-(4-((S)-1-((R)-6-(4-fluorophenyl)-6-(3-hydroxypropyl)-2-oxo-1,3-oxazinan-3-yl)ethyl)phenyl)-2,6-dimethylpyridine 1-oxide]
11β-HSD1 [1]; [3]
  IC50: 2.5 nM
11β-HSD1 [1]; [4]
  IC50: < 100 nM
11β-HSD1 [1]
  inhibition at 0.1 µM: 94.5%
11β-HSD1 [2]
  IC50: 6.5 nM
  Shift: 2.6

## Cc1cc(-c2ccc([C@H](C)N3CC[C@](CC(C)(C)O)(c4ccc(F)cc4)OC3=O)cc2)cc[n+]1[O-] [EXAMPLE 124, 4-(4-((S)-1-((S)-6-(4-fluorophenyl)-6-(2-hydroxy-2-methylpropyl)-2-oxo-1,3-oxazinan-3-yl)ethyl)phenyl)-2-methylpyridine 1-oxide]
11β-HSD1 [1]; [3]
  IC50: 5.6 nM
11β-HSD1 [1]; [4]
  IC50: < 100 nM
11β-HSD1 [1]
  inhibition at 0.1 µM: 88.1%
11β-HSD1 [2]
  IC50: 14.5 nM
  Shift: 2.6

## Cc1nccc(-c2ccc([C@H](C)N3CC[C@](CCCO)(c4ccc(F)cc4)OC3=O)cc2)n1 [EXAMPLE 126, (R)-6-(4-fluorophenyl)-6-(3-hydroxypropyl)-3-((S)-1-(4-(2-methylpyrimidin-4-yl)phenyl)ethyl)-1,3-oxazinan-2-one]
11β-HSD1 [1]; [3]
  IC50: 1.5 nM
11β-HSD1 [1]; [4]
  IC50: < 100 nM
11β-HSD1 [1]
  inhibition at 0.1 µM: 96.7%
11β-HSD1 [2]
  IC50: 13.3 nM
  Shift: 8.7

## Cc1nccc(-c2ccc([C@H](C)N3CC[C@](CC(C)(C)C#N)(c4ccc(F)cc4)OC3=O)cc2)n1 [EXAMPLE 142, 3-((R)-6-(4-fluorophenyl)-3-((S)-1-(4-(2-methylpyrimidin-4-yl)phenyl)ethyl)-2-oxo-1,3-oxazinan-6-yl)-2,2-dimethylpropanenitrile]
11β-HSD1 [1]; [3]
  IC50: 2.6 nM
11β-HSD1 [1]; [4]
  IC50: < 100 nM
11β-HSD1 [1]
  inhibition at 0.1 µM: 96.4%
11β-HSD1 [2]
  IC50: 8.1 nM
  Shift: 3.1

## C[C@@H](c1ccc(-c2cnc(C#N)cn2)cc1)N1CC[C@](CC(C)(C)O)(c2ccc(F)cc2)OC1=O [EXAMPLE 153, 5-(4-((S)-1-((S)-6-(4-fluorophenyl)-6-(2-hydroxy-2-methylpropyl)-2-oxo-1,3-oxazinan-3-yl)ethyl)phenyl)pyrazine-2-carbonitrile]
11β-HSD1 [1]; [3]
  IC50: 1.7 nM
11β-HSD1 [1]; [4]
  IC50: < 100 nM
11β-HSD1 [1]
  inhibition at 0.1 µM: 94.7%
11β-HSD1 [2]
  IC50: 9.2 nM
  Shift: 5.4

## CC[C@@H](c1ccc(-c2cc(C)[n+]([O-])c(C)c2)cc1)N1CC[C@](CC(C)(C)O)(c2ccccc2)OC1=O [EXAMPLE 154, 4-(4-((S)-1-((S)-6-(2-hydroxy-2-methylpropyl)-2-oxo-6-phenyl-1,3-oxazinan-3-yl)propyl)phenyl)-2,6-dimethylpyridine 1-oxide]
11β-HSD1 [1]; [3]
  IC50: 3.5 nM
11β-HSD1 [1]; [4]
  IC50: < 100 nM
11β-HSD1 [1]
  inhibition at 0.1 µM: 90.7%
11β-HSD1 [2]
  IC50: 13.2 nM
  Shift: 3.8

## C[C@@H](c1ccc(-c2cncc(C#N)n2)cc1)N1CC[C@](CC(C)(C)O)(c2ccc(F)cc2)OC1=O [EXAMPLE 157, 6-(4-((S)-1-((S)-6-(4-fluorophenyl)-6-(2-hydroxy-2-methylpropyl)-2-oxo-1,3-oxazinan-3-yl)ethyl)phenyl)pyrazine-2-carbonitrile]
11β-HSD1 [1]; [3]
  IC50: 2.9 nM
11β-HSD1 [1]; [4]
  IC50: < 100 nM
11β-HSD1 [1]
  inhibition at 0.1 µM: 96.3%
11β-HSD1 [2]
  IC50: 27.4 nM
  Shift: 9.6

## C[C@@H](c1ccc(-c2cncc(C(N)=O)n2)cc1)N1CC[C@](CC(C)(C)O)(c2ccc(F)cc2)OC1=O [EXAMPLE 159, 6-(4-{1-[6-(4-Fluoro-phenyl)-6-(2-hydroxy-2-methyl-propyl)-2-oxo-[1,3]oxazinan-3-yl]-ethyl}-phenyl)-pyrazine-2-carboxylic acid amide]
11β-HSD1 [1]; [3]
  IC50: 3.3 nM
11β-HSD1 [1]; [4]
  IC50: < 100 nM
11β-HSD1 [1]
  inhibition at 0.1 µM: 94.6%
11β-HSD1 [2]
  IC50: 7.3 nM
  Shift: 2.2

## CCOc1cc(-c2ccc([C@H](C)N3CC[C@](CC(C)(C)O)(c4ccccc4)OC3=O)cc2)cc(C)n1 [EXAMPLE 162, (S)-3-((S)-1-(4-(2-ethoxy-6-methylpyridin-4-yl)phenyl)ethyl)-6-(2-hydroxy-2-methylpropyl)-6-phenyl-1,3-oxazinan-2-one]
11β-HSD1 [1]; [3]
  IC50: 1.4 nM
11β-HSD1 [1]; [4]
  IC50: < 100 nM
11β-HSD1 [1]
  inhibition at 0.1 µM: 87.2%
11β-HSD1 [2]
  IC50: 31.7 nM
  Shift: 21.9

## C[C@@H](c1ccc(-c2cc(C#N)ccn2)cc1)N1CC[C@](CC(C)(C)O)(c2ccccc2)OC1=O [EXAMPLE 164, 2-(4-((S)-1-((S)-6-(2-hydroxy-2-methylpropyl)-2-oxo-6-phenyl-1,3-oxazinan-3-yl)ethyl)phenyl)isonicotinonitrile]
11β-HSD1 [1]; [3]
  IC50: 1.2 nM
11β-HSD1 [1]; [4]
  IC50: < 100 nM
11β-HSD1 [1]
  inhibition at 0.1 µM: 99.4%
11β-HSD1 [2]
  IC50: 22.2 nM
  Shift: 18.2

## C[C@@H](c1ccc(-c2ncccc2C#N)cc1)N1CC[C@](CC(C)(C)O)(c2ccccc2)OC1=O [EXAMPLE 165, 2-(4-((S)-1-((S)-6-(2-hydroxy-2-methylpropyl)-2-oxo-6-phenyl-1,3-oxazinan-3-yl)ethyl)phenyl)nicotinonitrile]
11β-HSD1 [1]; [3]
  IC50: 2.4 nM
11β-HSD1 [1]; [4]
  IC50: < 100 nM
11β-HSD1 [1]
  inhibition at 0.1 µM: 94.5%
11β-HSD1 [2]
  IC50: 42.5 nM
